The source of these data is PubChem BioAssay (NCI).

What all share (assay): growth of human tumour cells (NCI), 48 h
Test [1] concerns U251 CNS.
Test [2] relates to M14 melanoma.
Test [3] concerns OVCAR-4 ovarian.
In test [4] the test system is A549 NSCLC.
For test [5], the system named is OVCAR-5 ovarian.
Test [6] has as its system TK-10 renal.
The test system of test [7] is HCC-2998 colon.
Test [8] has as its system SNB-75 CNS.
Test [9] relates to HOP-62 NSCLC.
Test [10] concerns HCT-116 colon.

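Cells were grown in 96-well plates and exposed to each compound for 48 hours at five concentrations; endpoints were interpolated linearly between bracketing concentrations, or set to the highest concentration if not reached. GI50 = concentration required for 50% inhibition of growth. TGI: concentration producing complete growth inhibition.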 Where only a bound is given, the exact number is not on record here.

For `O=C(CSc1nc2ccccc2nc1-c1ccccc1)Nc1ccc(Cl)cc1`, the GI50 is 23.6 µM in test [1]; 23.7 µM in test [2]; 13.6 µM in test [3]; 32 µM in test [4]; above 100 µM in test [5]; 35.9 µM in [6]. Besides, the GI50 in test [7] is 46.4 µM; in test [8] it was 18.7 µM; in test [9], 5.28 µM; in test [10], 5.24 µM. Besides, the TGI in test [1] is 67.7 µM; in test [2], above 100 µM; in test [3] it was above 100 µM; in [4], above 100 µM; in [5], above 100 µM; in [6], above 100 µM. For the same compound, the TGI in test [7] is above 100 µM; in [8], 59.4 µM; in [9], 20.4 µM; in test [10], 24 µM.
On to `O=C1/C=C/[C@@H](O)[C@@H]2C[C@@H](O)C[C@H]2/C=C/CCC[C@H](CCc2ccc(C(F)(F)F)cc2)O1`, for which the GI50 is 0.272 µM in test [1]; 0.247 µM in [2]; 0.198 µM in test [3]; 0.305 µM in [4]; 0.505 µM in test [5]; 0.449 µM in test [6]. For the same compound, the GI50 was 0.238 µM in [7], 0.0544 µM in [8], 0.328 µM in test [9] and 0.251 µM in [10]. Further, the TGI in [1] was 21.3 µM; in [2], 11.9 µM; in test [3], 2.78 µM; in test [4], above 100 µM; in test [5], above 100 µM; in test [6] it was 5.47 µM. Moreover, the TGI in test [7] was 3.87 µM; in [8], 32.5 µM; in test [9] it was 11 µM; in test [10], 0.607 µM.
Consider `Cc1ncc(C(=O)Nc2ccc(CN3CCN(C)CC3)c(C(F)(F)F)c2)cc1C#Cc1cnc(N)c2cnccc12`, for which the GI50 in test [1] is 0.0864 µM; in [2], 0.0225 µM; in test [3], 0.0447 µM; in test [4], 0.202 µM; in test [5], 0.076 µM; in test [6] it was 0.132 µM. The GI50 in test [7] was 0.133 µM; in test [8], 0.0899 µM; in test [9], 0.0854 µM; in [10], 0.0434 µM. Also, the TGI turned out to be 2.35 µM in [1]; 0.17 µM in [2]; 4.25 µM in test [3]; 4.87 µM in [4]; 10.6 µM in test [5]; 1.93 µM in test [6]. The TGI in test [7] was determined as 15.2 µM; in [8], 0.616 µM; in test [9], 1.34 µM; in test [10], 1.23 µM.
Take `CCCCCCCCCCCCCCCCOCC(CN(C)CCN(C)C)OCCCCCCCCCCCCCCCC` (stereo not given): the TGI in test [1], in test [2], in test [3], in test [4], in test [5] and in [6] was above 100 µM each time. Also, the TGI in test [7], in test [8], in test [9] and in [10] was above 100 µM each time.
Turning to `O=C1/C(=C\c2ccc(F)cc2)CN(C(=O)c2ccc([N+](=O)[O-])cc2)C/C1=C\c1ccc(F)cc1`, the GI50 in [1] was 1.55 µM; in [2] it was 2.28 µM; in [3], 3.61 µM; in [4], 3.63 µM; in test [5] it was 4.6 µM; in [6] it was 5.05 µM. Besides, the GI50 in test [7] is 1.95 µM; in test [8], 7.66 µM; in test [9] it was 2.56 µM; in test [10], 0.21 µM. Also, the TGI is 3.97 µM in [1]; 6.81 µM in test [2]; above 100 µM in test [3]; above 77.3 µM in test [4]; 49.5 µM in [5]; 82.7 µM in test [6]. Moreover, the TGI in test [7] was 3.76 µM; in test [8], above 93 µM; in test [9], 7.85 µM; in [10], 0.448 µM.
Turning to `N#CC(/C(=N\NC(=O)c1ccncc1)C(=O)Nc1ccc([N+](=O)[O-])cc1[N+](=O)[O-])c1nc(-c2ccc(Br)cc2)cs1` (stereo not given), the TGI in test [1], in test [2], in test [3], in test [4], in test [5] and in test [6] was above 100 µM each time. The TGI in [7], in test [8], in test [9] and in test [10] was above 100 µM throughout.
Turning to `O=C(CCCCCCCn1cc(-c2cccnc2)nn1)Nc1ccccc1-c1ccccc1`, the GI50 in test [1] was 0.22 µM; in test [2], 0.0914 µM; in [3], 10.9 µM; in test [4], 1.15 µM; in test [5], 0.422 µM; in test [6], 17.4 µM. Moreover, the GI50 in [7] is 0.385 µM; in test [8] it was 29.8 µM; in test [9], 26.2 µM; in [10], 0.0361 µM. Moreover, the TGI in [1] was above 100 µM; in [2], 16.5 µM; in test [3] it was above 100 µM; in test [4], above 100 µM; in test [5], above 100 µM; in test [6], above 100 µM. Besides, the TGI in test [7] is above 61.8 µM; in [8], above 100 µM; in test [9], above 100 µM; in test [10], above 32.9 µM.
With `COc1ccc(CCN2CCCN3C2=Nc2ccccc2S3(=O)=O)cc1`, the GI50 is 0.388 µM in test [1]; 0.322 µM in test [2]; 0.912 µM in test [3]; 0.8 µM in test [4]; 20.2 µM in test [5]; 91 µM in test [6]. Moreover, the GI50 in test [7] is 1.45 µM; in test [8], 0.296 µM; in [9] it was 0.556 µM; in test [10], 0.444 µM. Besides, the TGI in test [1], in test [2], in test [3], in test [4], in test [5] and in test [6] was above 100 µM each time. Also, the TGI in [7] is above 100 µM; in test [8], above 100 µM; in test [9], above 100 µM; in [10] it was 16.4 µM.
For the compound `C[C@@H](N)C1CCC(C(=O)Nc2ccncc2)CC1` (stereo not given in full), the GI50 was above 100 µM in test [1]; above 100 µM in test [2]; above 100 µM in [3]; above 100 µM in test [4]; above 100 µM in [5]; 8.7 µM in test [6]. Besides, the GI50 in [7] is above 100 µM; in [8], 5.58 µM; in test [9], above 100 µM; in test [10], above 100 µM. In addition, the TGI in test [1], in [2], in test [3], in test [4], in [5] and in test [6] was above 100 µM each time. The TGI in test [7], in test [8], in test [9] and in test [10] was above 100 µM throughout.
As for `Nc1nc(Cl)cc(NCCCCCNc2cc(Cl)nc(N)n2)n1`, the TGI in test [1], in test [2], in test [3], in [4], in [5] and in [6] was above 100 µM in each case. The TGI in test [7], in test [8], in test [9] and in test [10] was above 100 µM each time.
In the case of `COc1cc(OC)c2ssc3c(OC)cc(OC)c4ssc1c2-c43`, the TGI in [1], in test [2], in test [3], in test [4], in [5] and in test [6] was above 100 µM in each case. The TGI in [7], in test [8], in test [9] and in test [10] was above 100 µM each time.
Consider `COc1c2ccoc2cc2oc(=O)ccc12`, for which the TGI in test [1], in test [2], in test [3], in test [4], in test [5] and in test [6] was above 100 µM each time. The TGI in test [7], in test [8], in test [9] and in test [10] was above 100 µM each time.
`CCOC(=O)C[C@@H](C)[C@]1(C(=O)OC)CCCC1=O`: the TGI in test [1], in test [2], in test [3], in test [4], in [5] and in test [6] was above 100 µM throughout. For the same compound, the TGI in test [7] was above 100 µM; in [8], above 100 µM; in [9], above 100 µM; in [10], above 62.6 µM.
